Experimental data as given in patent EP3045469A1, “POLYMYXIN DERIVATIVE AND USES THEREOF” (priority 2015, dated 2016).
Where two headings read alike, the source gives them in different places.

Legend:
[1] = test system: E. coli JMI 109; assay: MIC assay (CLSI broth microdilution; checkerboard with rifampin); type: cell-based, Escherichia coli; conditions: in combination with rifampin (0.25 µg/mL), duplicate checkerboard assays; polymyxin-nonsusceptible strain
Description: (§1) Synergy studies were performed by using polymyxin derivatives in combination with rifampin, a model compound for such antibacterial agents that the intact outer membrane of Gram-negative bacteria acts as a permeability barrier.

[2] = test system: K. pneumoniae JMI 27068; assay: as above; type: cell-based, Klebsiella pneumoniae; conditions: in combination with rifampin (0.25 µg/mL), duplicate checkerboard assays; polymyxin-nonsusceptible strain
Description: as §1

[3] = 7-day intravenous toxicity (nephrotoxicity) study in cynomolgus monkeys; conditions: IV infusion TID; for animals euthanized due to severe nephrotoxic effects: seven days, 3 animals per group
Description: In vivo toxicity and toxicokinetic studies were performed by using cynomolgus monkeys. The laboratory that performed the animal studies is accredited by the Association for Assessment and Accreditation of Laboratory Animal Care (AAALAC), has an Animal Welfare Assurance issued by the Office of Laboratory Animal Welfare (OLAW), is registered with the United States Department of Agriculture (USDA), and has an Institutional Animal Care and Use Committee (IACUC) responsible for compliance with applicable laws and regulations concerning the humane care and use of laboratory animals.
Naive female cynomolgus monkeys were acclimatized to study room for 28 days during which each animal was implanted with a permanent indwelling femoral catheter to permit continuous intravenous infusions. The animals were allowed surgical recovery period of at least 2 weeks before initiating dosing.
Polymyxin B sulfate was from Sigma-Aldrich (catalogue number P0972, lot number BCBF8382V). On each day of use, appropriate quantities of NAB739, NAB815 or polymyxin B were weighed and dissolved in appropriate volumes of sterile saline to prepare a stock solution for each test article and positive control. A correction factor was used in the stock solution preparation to account for both the purity and sulfate content in each test article. Accordingly, the dose (such as 36 mg/kg/d) refers to the dose of the pure peptide as its free base form, not as its sulfate salt.
The doses were the following: polymyxin B 18 mg/kg/d (Group 1), polymyxin B 24 mg/kg/d (Group 2), NAB739 24 mg/kg/d (Group 3), NAB739 36 mg/kg/d (Group 4), NAB815 24 mg/kg/d (Group 5), NAB815 36 mg/kg/d (Group 6). Three animals were included in each study groups.
For seven days, the animals were dosed by intravenous (IV) infusion three times daily (TID) at a dose volume of 10 mL/kg for 1 hour (± 10 minutes), 8 ± 0.5 hours apart. The day of initial dose administration was designated study Day 1, with subsequent days consecutively numbered. Days prior to the initial dose administration were consecutively numbered with the final day of acclimation referenced as Day -1.
The following parameters were evaluated at designed intervals: clinical observations, body weights, clinical pathology (hematology, coagulation, serum chemistry, urinalysis including urine sediments and urine chemistry), toxi-cokinetics (plasma and urine) and anatomic pathology (kidney). In cases of animals sacrificed on an unscheduled basis, samples were taken on the day of the sacrifice.
On the day of necropsy, animals were sedated with ketamine, weighed, and anesthetized with an intravenous injection of a commercial pentobarbital and phenytoin solution, followed by exsanguinations.
At necropsy, gross observations and organ weights were recorded, and specific tissues were collected. Histopathology was conducted on sections of kidney stained with hematoxylin and eosin (H&E).
The figures also show Urine N-acetyl-β-D-glucosaminidase/urine creatinine ratio (U-NAG/Crea; Fig. 3) and Urine Gamma Glutamyltransferase/urine creatinine ratio (U-GGT/Crea; Fig. 4), both urine biomarkers for kidney injury, in those animals. S-Crea and U-Crea were measured by using an Olympus Analyzer (OA) and the modified Jaffe method, S-BUN by using OA and urease/L-glutamate dehydrogenase. U-NAG was measured by using OA/enzymatic, and U-GGT by using OA and glutamyl-carboxy-p-nitroanilide IFCC.
The presence of the following nephropathological parameters was recorded in each animal: tubular basophilia (regeneration), tubular degeneration/necrosis, infiltration (by mononuclear and/or mixed inflammatory cells), tubular dilatation, and tubular casts.

[4] = test system: Escherichia coli C175-94; assay: Murine urinary infection efficacy study; type: in vivo
Description: The study used 64 outbred, OF-1 female mice (Charles River, France) weighing 28 -32 grams and Escherichia coli C175-94 (serotype O8:K48:H4), a clinical isolate elaborating type 1fimbriae. The peptides were NAB815 (Lot 1054308) and polymyxin B (Sigma-Aldrich, batch BCBF8382V). The study was performed by Statens Serum Institut, Copenhagen, Denmark.
Three days before the start of the study and during the study, the mice had free access to 5% glucose as drinking water.
On day 0, the urine was removed from the bladder by gently pressing the abdomen, Thereafter, the mouse was anaesthetized with approximately 0.15 ml of Zoletil mix s.c. A syringe with polyethylene catheter (Becton Dickison) containing the bacterial suspension was inserted via the urethra into the bladder and 50 µl of the bacterial inoculum was slowly injected into the bladder. Hereafter, the mouse was left in the cage. Mice were kept in a warming cabinet and were under surveillance until fully awake.
After measuring the colony forming units (CFUs), the inoculum was determined to contain 9.38 log10 CFU/ml, corresponding to 8.08 log10 CFU/mouse.
On day 1 and on day 2 postinfection, the mice were treated subcutaneously with solutions (0.2 ml) containing NAB815, polymyxin B or vehicle (0.9% NaCl) twice a day. The treatment groups (six mice in each) were the following: vehicle control; NAB815, 0.25 mg/kg/dose; NAB815, 0.5 mg/kg/dose; NAB815, 1 mg/kg/dose; NAB815, 2 mg/kg/dose; polymyxin B, 0.25 mg/kg/dose; polymyxin B, 0.5 mg/kg/dose; polymyxin B, 1 mg/kg/dose; and polymyxin B, 2 mg/kg/dose. In addition, one group served as a pretreatment control to help to assess as how the infection has proceeded before the start of the treatment on day 1 postinfection.
On days 1, 2 and 3 postinfection urine was sampled for colony counts. On day 1 postinfection (pretreatment control group) and on day 3 postinfection (all the other groups) after the urine sample was taken, mice were sacrificed by cervical dislocation and bladder and kidneys were removed aseptically. The bladder and kidneys were stored at -80 °C and later homogenized in 0.5 and 1 ml saline, respectively.
CFUs in urine were determined immediately within 2-3 hours after sampling. Frozen organs were thawed and homogenized with steel beads on a tissue lyser. All samples, urine, kidney and bladder, were 10 fold diluted in saline and 20-µl spots were applied on blood agar plates in duplicates. In addition, undiluted samples of urine (2-100 µl depending on the amount of urine) were spread on a separate agar plate to determine the lowest possible detection level of the colony counts. All agar plates were incubated 18-22 h at 35 °C in ambient air.

[5] = dogs; cited from earlier work
[6] = monkeys; cited from earlier work
[7] = rats; cited from earlier work
[8] = the six animals at 18 mg/kg/d and 24 mg/kg/d
[9] = of all the 24 mice treated at 0.25-2 mg/kg/dose

What does the source list for Polymyxin B?
MIC [1]: 0.5 to 1 µg/mL; MIC [2]: 1 µg/mL; animals euthanized due to severe nephrotoxic effects ([3]; 18 mg/kg/d): all the three animals; animals euthanized due to severe nephrotoxic effects ([3]; 24 mg/kg/d): Two animals; S-BUN, S-Crea and U-GGT/Crea [3, 8]: remarkably increased; U-NAG/Crea [3, 8]: remarkably increased in five of the animals; dose-response in the CFUs in the bladder and in the kidneys ([4]; mice, 0.25-2 mg/kg/dose subcutaneously twice a day): did not show any dose-response tendency; CFU levels in urine, day 3 versus pretreatment control group on day 1 postinfection ([4]; mice, any dose group (0.25, 0.5, 1, 2 mg/kg/dose) subcutaneously twice a day): no significant differences; number of mice with bacterial levels below the detection limit in the kidneys [4, 9]: 10; number of mice with bacterial levels below the detection limit in the urine [4, 9]: 1; S-Crea and BUN response [5]: elicited a rapid onset of S-Crea and BUN response; S-Crea and BUN response [6]: elicited a rapid onset of S-Crea and BUN response; S-Crea and BUN response [7]: lack of response
